This note sets out measurements from patent publication US11071729B2, “1′,3′-disubstituted-4-phenyl-3,4,5,6-tetrahydro-2H,1′H-[1,4′]bipyridinyl-2′-ones” (Janssen Pharmaceuticals, Inc., priority 2007, dated 2021).

Molecules are shown by their SMILES.

The assay addresses human mGluR2 receptor (Homo sapiens (Human), UniProt Q14416). The assay can be described thus: [35S]GTPγS binding assay (PAM assay). The conditions noted are these: membranes from CHO cells transfected with human mGluR2, in presence of glutamate at EC25 concentration, averages of duplicate values of 11-concentration response curves. The format is biochemical. The method, then:
The [^35S]GTPγS binding assay is a functional membrane-based assay used to study G-protein coupled receptor (GPCR) function whereby incorporation of a non-hydrolysable form of GTP, [^35S]GTPγS (guanosine 5′-triphosphate, labelled with […] ^35S), is measured. The G-protein […] subunit catalyzes the exchange of guanosine 5′-diphosphate (GDP) by guanosine triphosphate (GTP) and on activation of the GPCR by an agonist, [^35S]GTPγS, becomes incorporated and cannot be cleaved to continue the exchange cycle (Harper (1998) Current Protocols in Pharmacology 2.6.1-10, John Wiley & Sons, Inc.). […] Here we describe the use of the [^35S]GTPγS binding assay using membranes from cells transfected with the human mGluR2 receptor and adapted from Schaffhauser et al ((2003) Molecular Pharmacology 4:798-810) for the detection of the positive allosteric modulation (PAM) properties of the compounds of this invention.
CHO-cells were cultured to pre-confluence and stimulated with 5 mM butyrate for 24 hours, prior to washing in PBS, and then collected by scraping in homogenisation buffer (50 mM Tris-HCl buffer, pH 7.4, 4° C.). Cell lysates were homogenized briefly (15 s) using an ultra-turrax homogenizer. The homogenate was centrifuged at 23 500×g for 10 minutes and the supernatant discarded. The pellet was resuspended in 5 mM Tris-HCl, pH 7.4 and centrifuged again (30 000×g, 20 min, 4° C.). The final pellet was resuspended in 50 mM HEPES, pH 7.4 and stored at −80° C. in appropriate aliquots before use. Protein concentration was determined by the Bradford method (Bio-Rad, USA) with bovine serum albumin as standard.
Measurement of mGluR2 positive allosteric modulatory activity of test compounds in membranes containing human mGluR2 was performed using frozen membranes that were thawed and briefly homogenized prior to pre-incubation in 96-well microplates (15 μg/assay well, 30 minutes, 30° C.) in assay buffer (50 mM HEPES pH 7.4, 100 mM NaCl, 3 mM MgCl2, 50 μM GDP, 10 μg/ml saponin,) with increasing concentrations of positive allosteric modulator (from 0.3 nM to 50 μM) and either a minimal pre-determined concentration of glutamate (PAM assay), or no added glutamate. For the PAM assay, membranes were pre-incubated with glutamate at EC25 concentration, i.e. a concentration that gives 25% of the maximal response glutamate, and is in accordance to published data (Pin et al. (1999) Eur. J. Pharmacol. 375:277-294). After addition of [^35S]GTPγS (0.1 nM, f.c.) to achieve a total reaction volume of 200 μl, microplates were shaken briefly and further incubated to allow [^35S]GTPγS incorporation on activation (30 minutes, 30° C.). The reaction was stopped by rapid vacuum filtration over glass-fibre filter plates (Unifilter 96-well GF/B filter plates, Perkin-Elmer, Downers Grove, USA) microplate using a 96-well plate cell harvester (Filtermate, Perkin-Elmer, USA), and then by washing three times with 300 μl of ice-cold wash buffer (Na2PO4.2H2O 10 mM, NaH2PO4.H2O 10 mM, pH=7.4). Filters were then air-dried, and 40 μl of liquid scintillation cocktail (Microscint-O) was added to each well, and membrane-bound [^35S]GTPγS was measured in a 96-well scintillation plate reader (Top-Count, Perkin-Elmer, USA). Non-specific [^35S]GTPγS binding is determined in the presence of cold 10 μM GTP.
For orientation: GTPγS resists hydrolysis and so accumulates on activated G proteins.

Sequence of human mGluR2 receptor (Q14416 19-872): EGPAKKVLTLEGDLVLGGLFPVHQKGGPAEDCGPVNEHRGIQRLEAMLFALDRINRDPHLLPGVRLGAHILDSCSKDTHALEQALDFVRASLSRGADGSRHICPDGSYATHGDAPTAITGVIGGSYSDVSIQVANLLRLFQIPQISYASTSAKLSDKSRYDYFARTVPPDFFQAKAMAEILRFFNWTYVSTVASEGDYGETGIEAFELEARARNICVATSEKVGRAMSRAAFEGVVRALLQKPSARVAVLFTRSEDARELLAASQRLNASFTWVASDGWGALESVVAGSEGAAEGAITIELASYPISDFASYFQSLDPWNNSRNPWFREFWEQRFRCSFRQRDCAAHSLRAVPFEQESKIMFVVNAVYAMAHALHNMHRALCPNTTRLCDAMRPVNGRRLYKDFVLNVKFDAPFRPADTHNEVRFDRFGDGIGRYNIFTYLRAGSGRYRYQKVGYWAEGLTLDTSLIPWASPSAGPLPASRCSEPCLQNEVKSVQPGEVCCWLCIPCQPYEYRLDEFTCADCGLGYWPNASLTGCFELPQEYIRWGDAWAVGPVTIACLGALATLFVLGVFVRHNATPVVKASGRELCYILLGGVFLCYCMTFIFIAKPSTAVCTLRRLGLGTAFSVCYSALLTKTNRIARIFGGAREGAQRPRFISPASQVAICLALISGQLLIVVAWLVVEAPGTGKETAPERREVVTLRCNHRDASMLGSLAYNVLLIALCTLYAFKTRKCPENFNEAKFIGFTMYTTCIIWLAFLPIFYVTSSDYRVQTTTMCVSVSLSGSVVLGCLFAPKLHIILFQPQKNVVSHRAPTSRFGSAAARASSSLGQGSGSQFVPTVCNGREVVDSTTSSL

As for `O=c1c(Cl)c(N2CCC(c3ccccc3)CC2)ccn1CC1CC1` [Compound 1, 3′-Chloro-1′-cyclopropylmethyl-4-phenyl-3,4,5,6-tetrahydro-2H,1′H-[1,4′]bipyridinyl-2′-one], the “GTPgS - hR2 PAM pEC50” value turned out to be 6.53.
On the same count and under the same terms, to `O=c1c(Br)c(N2CCC(c3ccccc3)CC2)ccn1CC1CC1` [Compound 3, 3′-Bromo-1′-cyclopropylmethyl-4-phenyl-3,4,5,6-tetrahydro-2H,1′H-[1,4′]bipyridinyl-2′-one] belongs 6.88.
With `O=c1c(C(F)(F)F)c(N2CCC(c3ccccc3)CC2)ccn1CC1CC1` [Compound 4, 1′-Cyclopropylmethyl-4-phenyl-3′-trifluoromethyl-3,4,5,6-tetrahydro-2H,1′H-[1,4′]bipyridinyl-2′-one], the “GTPgS - hR2 PAM pEC50” value is recorded as 6.45.
Same read-out and setting: to `O=c1c(Cl)c(N2CCC(c3ccccc3)CC2)ccn1Cc1ccc(OC(F)(F)F)cc1` [Compound 5, 3′-Chloro-4-phenyl-1′-(4-trifluoromethoxybenzyl)-3,4,5,6-tetrahydro-2H,1′H-[1,4′]bipyridinyl-2′-one] belongs 6.90.
Same read-out and setting: to `N#CC1(c2ccccc2)CCN(c2ccn(CC3CC3)c(=O)c2Cl)CC1` [Compound 6, 3′-Chloro-1′-cyclopropylmethyl-2′-oxo-4-phenyl-3,4,5,6,1′,2′-hexahydro-2H-[1,4′]bipyridinyl-4-carbonitrile] belongs 6.34.
For `CCCCn1ccc(N2CCC(F)(c3ccccc3)CC2)c(Cl)c1=O` [Compound 7], for the setting “read-out: GTPgS - hR2 PAM pEC50 (converted)”, the EC50 is 240 nM.
In the case of `O=c1c(C2CC2)c(N2CCC(c3ccccc3)CC2)ccn1CC1CC1` [Compound 8, 3′-Cyclopropyl-1′-cyclopropylmethyl-4-phenyl-3,4,5,6-tetrahydro-2H,1′H-[1,4′]bipyridinyl-2′-one], the “GTPgS - hR2 PAM pEC50” value was 6.04.
Same read-out and setting: the same measure for `CC(C)(O)c1ccc(C2CCN(c3ccn(CC4CC4)c(=O)c3Cl)CC2)cc1` [Compound 9, 3′-Chloro-1′-cyclopropylmethyl-4-[4-(1-hydroxy-1-methyl-ethyl)-phenyl]-3,4,5,6-tetrahydro-2H,1′H-[1,4′]bipyridinyl-2′-one]: 6.57; for `O=c1c(Cl)c(N2CCC(c3ccccc3)CC2)ccn1CCC1CC1` [Compound 10]: 6.88.
With `CCCCCn1ccc(N2CCC(c3ccccc3)CC2)c(Cl)c1=O` [Compound 11], the “GTPgS - hR2 PAM pEC50” value stood at 7.11.
Still for that read-out and setting: the same measure for `O=c1c(Cl)c(N2CCC(c3ccccc3F)CC2)ccn1CC1CC1` [Compound 12]: 7.03; for `O=c1c(Cl)c(N2CCC(c3ccc(N4CCOCC4)cc3)CC2)ccn1CC1CC1` [Compound 13]: 6.64.
Still for that read-out and setting: the same measure for `O=c1c(Cl)c(N2CCC(c3ccc(F)cc3F)CC2)ccn1CC1CC1` [Compound 14]: 6.92; for `O=c1c(Cl)c(N2CCC(c3ccccc3Cl)CC2)ccn1CC1CC1` [Compound 15]: 7.00; for `O=c1c(Cl)c(N2CCC(c3cccc(C(F)(F)F)c3)CC2)ccn1CC1CC1` [Compound 16]: 7.12.
Turning to `O=c1c(Cl)c(N2CCC(F)(c3ccccc3)CC2)ccn1CC1CC1` [Compound 17], the “GTPgS - hR2 PAM pEC50” value turned out to be 6.57.
On the same count and under the same terms, the same measure for `CC(C)CCn1ccc(N2CCC(c3ccccc3)CC2)c(Cl)c1=O` [Compound 18]: 7.20; for `CC(C)Cn1ccc(N2CCC(c3ccccc3)CC2)c(Cl)c1=O` [Compound 19]: 6.71; for `O=c1c(Cl)c(N2CCC(OCCF)(c3ccccc3)CC2)ccn1CC1CC1` [Compound 20, 3′-Chloro-1′-cyclopropylmethyl-4-(2-fluoro-ethoxy)-4-phenyl-3,4,5,6-tetrahydro-2H,1′H-[1,4′]bipyridinyl-2′-one]: 6.91.
On the same count and under the same terms, to `O=c1c(Cl)c(N2CCC(CF)(c3ccccc3)CC2)ccn1CC1CC1` [Compound 21, 3′-Chloro-1′-cyclopropylmethyl-4-fluoromethyl-4-phenyl-3,4,5,6-tetrahydro-2H,1′H-[1,4′]bipyridinyl-2′-one] belongs 6.25; to `CCCCn1ccc(N2CCC(CO)(c3ccccc3)CC2)c(Cl)c1=O` [Compound 22, 1′-Butyl-3′-chloro-4-hydroxymethyl-4-phenyl-3,4,5,6-tetrahydro-2H,1′H-[1,4′]bipyridinyl-2′-one], 6.05.
The same measure, in the same setting: to `CC(C)CCn1ccc(N2CCC(F)(c3ccccc3)CC2)c(Cl)c1=O` [Compound 23] belongs 6.58.
`CC(C)CCn1ccc(N2CCC(c3ccc(F)cc3F)CC2)c(Cl)c1=O` [Compound 24]: the “GTPgS - hR2 PAM pEC50” value is 6.91.
For the molecule `CCCCn1ccc(N2CCC(c3ccc(F)cc3F)CC2)c(Cl)c1=O` [Compound 25], the “GTPgS - hR2 PAM pEC50” value came out at 6.83.
The same measure, in the same setting: the same measure for `O=c1c(Cl)c(N2CCC(F)(c3ccccc3)CC2)ccn1CCC1CC1` [Compound 26]: 6.41; for `CCCCn1ccc(N2CCC(c3ccc(C(C)(C)O)cc3)CC2)c(Cl)c1=O` [Compound 27]: 6.46; for `CCCCn1ccc(N2CCC(c3ccccc3C(C)(C)O)CC2)c(Cl)c1=O` [Compound 28, 1′-Butyl-3′-chloro-4-[2-(1-hydroxy-1-methyl-ethyl)-phenyl]-3,4,5,6-tetrahydro-2H,1′H-[1,4′]bipyridinyl-2′-one]: 7.06.
On to `CCCCn1ccc(N2CCC(c3ccc(C(C)(C)O)cc3F)CC2)c(Cl)c1=O` [Compound 29, 1′-Butyl-3′-chloro-4-[2-fluoro-4-(1-hydroxy-1-methyl-ethyl)-phenyl]-3,4,5,6-tetrahydro-2H,1′H-[1,4′]bipyridinyl-2′-one], for which the “GTPgS - hR2 PAM pEC50” value is 6.88.
